Laboratory results reported in patent US9040061B2, “Topical formulation for administering a compound” (Rigel Pharmaceuticals, Inc., priority 2011, dated 2015).
≈ marks a conversion by molar mass, not a printed value. Counter-ions that a name gives are not always drawn. Like-named read-outs stand apart in the source and are kept apart here. Marks after values point to notes of the source that are not given here. Values belong to the compound of their own block, whether it stands above or below them.

Experiments:
[1] = Solubility studies of compound I; type: physicochemical
[2] = Solubility studies of compound I; type: physicochemical; remark: listed apart in the source
Protocol: The solubility of compound I free base in water is only 2 μg/mL. […] Accordingly, the free base was utilized for the formulation development of compound I.

[3] = test system: primary human T-cells; test: Primary human T-cell proliferation assay stimulated with IL-2; type: cell-based; conditions: IL-2, 72 hours, CellTiter-Glo
Excerpt: The JAK activity of compound I may further be characterized by assaying the effect of compound I on the proliferative response of primary human T-cells. In this assay, primary human T-cells derived from peripheral blood and pre-activated through stimulation of the T-cell receptor and CD28, proliferate in culture in response to the cytokine Interleukin-2 (IL-2). This proliferative response is dependent on the activation of JAK1 and JAK3 tyrosine kinases, which phosphorylate and activate the transcription factor Stat-5. The primary human T-cells are incubated with compound I in the presence of IL-2 for 72 hours and at the assay endpoint intracellular ATP concentrations are measured to assess cell viability. A reduction in cell proliferation compared to control conditions is indicative of inhibition of the JAK kinase pathway. An exemplary assay of this type is described in greater detail below.
Primary human T-cells derived from peripheral blood and pre-activated through stimulation of the T-cell receptor and CD28, proliferate in vitro in response to the cytokine Interleukin-2 (IL-2). […]
Proliferation was measured using CellTiter-Glo® Luminescent Cell Viability Assay (Promega), which determines the number of viable cells in culture based on quantitation of the ATP present, as an indicator of metabolically active cells. […]

[4] = test system: cell proliferation; test: Cell proliferation; type: cell-based
[5] = test system: other cytokine (IL-1β and TNFα) signaling; test: Other cytokine signaling; type: cell-based
[6] = test system: human Ramos B cells stimulated with human IL-4 (JAK1 and JAK3, CD23 upregulation); test: Ramos B-cell line stimulated with IL-4, CD23 upregulation (FACS); type: cell-based; conditions: IL-4 50 units/mL for 20-24 hours, anti-CD23-PE FACS
Excerpt: One means of assaying for JAK inhibition is detection of the effect of compound I on the upregulation of downstream gene products. In the Ramos/IL4 assay, B-cells are stimulated with the cytokine Interleukin-4 (IL-4) leading to the activation of the JAK/Stat pathway through phosphorylation of the JAK family kinases, JAK1 and JAK3, which in turn phosphorylate and activate the transcription factor Stat-6. […] To study the effect of inhibitors (for example, the 2,4-substituted pyrimidinediamine compounds described herein) on the JAK1 and JAK3 kinases, human Ramos B cells are stimulated with human IL-4. Twenty to 24 hours post stimulation, cells are stained for upregulation of CD23 and analyzed using flow cytometry (FACS). […] An exemplary assay of this type is described in greater detail below.
B-cells stimulated with cytokine Interleukin-4 (IL-4) activate the JAK/Stat pathway through phosphorylation of the JAK family kinases, JAK-1 and JAK-3, which in turn phosphorylate and activate the transcription factor Stat-6. […] To study the effect of inhibitors on the JAK family kinases, human Ramos B cells are stimulated with human IL-4.
The Ramos B-cell line was acquired from ATCC (ATCC Catalog No. CRL-1596). […]
Cells were spun down and suspended in RPMI with 5% serum. […] Cells were then spun down and stained with anti-CD23-PE (BD Pharmingen, San Diego, Calif., Cat No. 555711) and analyzed by FACS. […]

[7] = biological target: T1, Syk (Homo sapiens, UniProt P43405); test: Human cell based assay against Syk; conditions: human cell based assays, read-out: half maximal effective concentration (EC50)
T1 construct: endogenous in cells

[8] = test system: receptor tyrosine kinase (RTK) signaling; test: Receptor tyrosine kinase signaling; type: cell-based

solubility ([1]; PEG400 (temperature not given)): 48000 µg/mL
solubility ([1]; PG): 15 ^d mg/mL
SMILES: C#CCOc1ccc(Nc2nc(Nc3ccc(C)c(S(N)(=O)=O)c3)ncc2F)cc1 [Compound I besylate salt, N2-(3-aminosulfonyl-4-methylphenyl)-5-fluoro-N4-[4-(prop-2-ynyloxy)phenyl]-2,4-pyrimidinediamine]

solubility ([2]; 40% TPGS/60% PEG400, organic solvent or mixture, 40% TPGS/60% PEG400, read-out: Solubility): 1700 µg/mL
solubility ([2]; IPA, organic solvent or mixture, IPA, read-out: Solubility): 37 µg/mL
solubility ([2]; oleyl alcohol, oil or lipid, Oleyl alcohol, read-out: Solubility): 200 µg/mL
solubility ([2]; polyoxyglyceride (Labrafil M1944 CS), oil or lipid, Polyoxyglyceride (Labrafil M1944 CS), read-out: Solubility): 70 µg/mL
solubility ([2]; polyoxyglyceride (Labrasol), oil or lipid, Polyoxyglyceride (Labrasol), read-out: Solubility): 1800 µg/mL
solubility ([2]; triglyceride, oil or lipid, Triglyceride, read-out: Solubility): 20 µg/mL
solubility ([1]; DMI, organic solvent or mixture, DMI (temperature not given), read-out: Solubility): 400 µg/mL
solubility ([1]; EtOH, organic solvent or mixture, EtOH (temperature not given), read-out: Solubility): 300 µg/mL
solubility ([1]; PEG400 (temperature not given)): 2.6 ^e mg/mL
solubility ([1]; PG): 5.2 ^e mg/mL
solubility ([1]; diethylene glycol monoethyl ether (Transcutol P), organic solvent or mixture, Diethylene glycol monoethyl ether (transcutol P), read-out: Solubility): 900 µg/mL
solubility ([1]; isopropyl myristate, oil or lipid, Isopropyl Myristate, read-out: Solubility): 5 µg/mL
solubility ([1]; propylene glycol laurate (Lauroglycol FCC), oil or lipid, Propylene Glycol Laurate (Lauroglycol FCC), read-out: Solubility): 20 µg/mL
solubility ([1]; propylene glycol monocaprylate (Capryol 90), oil or lipid, Propylene Glycol Monocaprylate (Capryol 90), read-out: Solubility): 70 µg/mL
SMILES: C#CCOc1ccc(Nc2nc(Nc3ccc(C)c(S(N)(=O)=O)c3)ncc2F)cc1 [Compound I HCl, N2-(3-aminosulfonyl-4-methylphenyl)-5-fluoro-N4-[4-(prop-2-ynyloxy)phenyl]-2,4-pyrimidinediamine]

solubility ([2]; 4% H2O-96% THF, organic solvent or mixture, 4% H2O-96% THF, read-out: Solubility): 77000 µg/mL (≈ 180 mM)
solubility ([2]; 12% H2O-88% THF, organic solvent or mixture, 12% H2O-88% THF, read-out: Solubility): 202000 µg/mL (≈ 473 mM)
solubility ([2]; 16% H2O-84% THF, organic solvent or mixture, 16% H2O-84% THF, read-out: Solubility): 163000 µg/mL (≈ 381 mM)
solubility ([2]; 95% THF-5% PEG400, organic solvent or mixture, 95% THF-5% PEG400, read-out: Solubility): 70000 µg/mL (≈ 164 mM)
solubility ([2]; DMI, 25 °C, organic solvent or mixture, DMI, determined at 25° C., read-out: Solubility): 124000 µg/mL (≈ 290 mM)
solubility ([2]; Miglyol 812N, oil or lipid, Miglyol 812N, read-out: Solubility): 2300 µg/mL (≈ 5.38 mM)
compound I concentration that can be obtained (solubility study) ([2]; at 45° C. in a formulation containing 14% water, 45% PEG400, and 20% PEG4500): 120 mg/g
solubility ([2]; castor oil, oil or lipid, Castor Oil, read-out: Solubility): 7400 µg/mL (≈ 17.3 mM)
solubility ([2]; water, 25 °C, water, 25° C., read-out: water solubility): 2 µg/mL (≈ 0.00468 mM)
IC50 [6]: 0.056 nM
solubility ([1]; 5% THF-95% PEG400, organic solvent or mixture, 5% THF-95% PEG400, read-out: Solubility): 117000 µg/mL (≈ 274 mM)
solubility ([1]; 10% THF-90% PEG400, organic solvent or mixture, 10% THF-90% PEG400, read-out: Solubility): 129000 µg/mL (≈ 302 mM)
solubility ([1]; 20% EtOH-80% PEG400, organic solvent or mixture, 20% EtOH-80% PEG400, read-out: Solubility): 126000 µg/mL (≈ 295 mM)
solubility ([1]; 20% H2O-80% THF, organic solvent or mixture, 20% H2O-80% THF, read-out: Solubility): 133000 µg/mL (≈ 311 mM)
solubility ([1]; 50% EtOH-50% PEG400, organic solvent or mixture, 50% EtOH-50% PEG400, read-out: Solubility): 136000 µg/mL (≈ 318 mM)
solubility ([1]; 90% THF-10% PEG400, organic solvent or mixture, 90% THF-10% PEG400, read-out: Solubility): 75000 µg/mL (≈ 175 mM)
solubility ([1]; EtOH, 25 °C, organic solvent or mixture, EtOH, determined at 25° C., read-out: Solubility): 3200 µg/mL (≈ 7.49 mM)
solubility ([1]; Glycofurol, listed as Compound I free base): >205 ^b mg/mL
solubility ([1]; PEG400 (temperature not given), listed as Compound I free base): 129 ^c mg/mL
solubility ([1]; PEG400, 25 °C, organic solvent or mixture, PEG400, determined at 25° C., read-out: Solubility): > 200000 µg/mL
solubility ([1]; PEG400, determined at 25° C.): 292000 µg/mL (≈ 683 mM)
solubility ([1]; PG, listed as Compound I free base): 27 ^c mg/mL
solubility ([1]; glycofurol, organic solvent or mixture, Glycofurol, read-out: Solubility): > 200000 µg/mL
solubility ([1]; glycofurol/water 8/2, organic solvent or mixture, Glycofurol/water 8/2, read-out: Solubility): < 205000 µg/mL
solubility ([1]; glycofurol/water 9/1 w/w, organic solvent or mixture, Glycofurol/water 9/1 w/w, read-out: Solubility): > 202000 µg/mL
solubility ([1]; water, 25 °C, water, determined at 25° C., read-out: Solubility): 2 µg/mL (≈ 0.00468 mM)
EC50 [7]: ~140 nM
activity on receptor tyrosine kinase (RTK) signaling [8]: little or no activity
SMILES: C#CCOc1ccc(Nc2nc(Nc3ccc(C)c(S(N)(=O)=O)c3)ncc2F)cc1 [Compound I, N2-(3-aminosulfonyl-4-methylphenyl)-5-fluoro-N4-[4-(prop-2-ynyloxy)phenyl]-2,4-pyrimidinediamine]
IC50 [3]: 0.181 nM
inhibition of cell proliferation [4]: not a broad inhibitor of cell proliferation
activity on other cytokine (IL-1β and TNFα) signaling [5]: little or no activity
